From publication PMC10714400, “Antimicrobial Peptide–Peptoid Hybrids with and without Membrane Disruption” (ACS Infectious Diseases, 2023)
In brackets after ≈: the same amount, converted by molar mass. Like-named read-outs stand apart in the source and are kept apart here. Where a SMILES comes first, the peptide text is derived from it. [ ]: non-standard residue; d: D form.

Columns and labels:
[1] = tested on: HEK293 cells; experiment: Cell viability assay by Alamar blue; details: read-out: Toxicity on HEK293 cells; CSV
Outline: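 Alamar blue viability readout on HEK293 cells grown in DMEM high glucose and A549 cells grown in RPMI-1640, each with 10% FBS and 1% penicillin/streptomycin, at 37 °C under 5% CO2. Mean ± SD, n = 3.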

[2] = tested on: PA14 2P4 (pmrB)
Outline: (§1)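 MIC read visually after MTT staining: lowest compound concentration preventing visible growth (yellow wells). Inoculum ~5 × 10^5 CFU per well in MH broth; static incubation at 37 °C for ca. 18 h.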

[3] = tested on: P. aeruginosa PAO1
Outline: as §1

[4] = tested on: PA14 4.18 (pmrB)
Outline: as §1

[5] = tested on: PA14 4.13 (phoQ)
Outline: as §1

[6] = tested on: ZEM-1A (clinical MDR P. aeruginosa isolate)
Outline: as §1

[7] = tested on: E. coli W3110
Outline: as §1

[8] = tested on: K. pneumoniae OXA-48
Outline: as §1

[9] = tested on: E. cloacae
Outline: as §1

[10] = tested on: S. aureus Newman
Outline: as §1

[11] = tested on: S. maltophilia
Outline: as §1

[12] = tested on: S. epidermis
Outline: as §1

[13] = tested on: B. cenocepacia
Outline: as §1

[14] = tested on: P. aeruginosa PA14
Outline: as §1

[15] = Circular dichroism, α-helical content; type: physicochemical; details: 0.1 mg/mL; for CD %α with 5 mM DPC: 10 mM phosphate buffer pH 7.4, 5 mM DPC; for CD %α with 20% TFE: 10 mM phosphate buffer pH 7.4, 20% TFE
[16] = tested on: human red blood cells (hRBC); experiment: Minimum hemolytic concentration (MHC); type: cell-based
From the text: We also measured minimal hemolysis concentrations (MHC) on human red blood cells by serial 2-fold dilution as an indication of toxicity against eukaryotic cells (Table 1).

CC(C)C[C@H](NC(=O)[C@H](CC(C)C)NC(=O)[C@H](CC(C)C)NC(=O)[C@@H](CCCCN)NC(=O)[C@H](CC(C)C)NC(=O)[C@H](CC(C)C)NC(=O)[C@@H](CCCCN)NC(=O)[C@H](CC(C)C)NC(=O)[C@H](CC(C)C)NC(=O)[C@@H](CCCCN)NC(=O)[C@H](N)CCCCN)C(N)=O [ln69, kkLLkLLkLLL, reference compound] (H-[dK][dK]LL[dK]LL[dK]LLL-NH2)
IC50 [1]: 45 ± 9 µM
MIC P. aeruginosa PA14 2P4, […] MH at pH 8.5 ([2]; CSV, […] MH at pH 8.5): 4 ug/mL
MIC P. aeruginosa PA14 2P4, full MH at pH 7.4 ([2]; CSV, full MH at pH 7.4): 32 ug/mL
MIC PA14 2P4 (pmrB) ([2]; MH pH 7.4, 16–20 h at 37 °C): 32 µg/mL (≈ 24.2 µM)
MIC P. aeruginosa PA14 2P4 ([2]; Table S3, […] MH at pH 8.5): 4 µg/mL (≈ 3.03 µM)
MIC P. aeruginosa PAO1, […] MH at pH 7.4 ([3]; CSV, […] MH at pH 7.4): 4 ug/mL
MIC P. aeruginosa PAO1, […] MH at pH 8.5 ([3]; CSV, […] MH at pH 8.5): 2 ug/mL
MIC P. aeruginosa PAO1, full MH at pH 7.4 ([3]; CSV, full MH at pH 7.4): 8 ug/mL
MIC P. aeruginosa PAO1, full MH at pH 8.5 ([3]; CSV, full MH at pH 8.5): 8 ug/mL
MIC P. aeruginosa PAO1 […] 7.4 ([3]; Table S2, […] MH, pH 7.4): 4 µg/mL (≈ 3.03 µM)
MIC P. aeruginosa PAO1 […] 8.5 ([3]; Table S2, […] MH, pH 8.5): 2 µg/mL (≈ 1.51 µM)
MIC P. aeruginosa PAO1 Full MH 7.4 ([3]; Table S2, full MH, pH 7.4): 8 µg/mL (≈ 6.05 µM)
MIC P. aeruginosa PAO1 Full MH 8.5 ([3]; Table S2, full MH, pH 8.5): 8 µg/mL (≈ 6.05 µM)
MIC P. aeruginosa PAO1 […] ([3]; diluted MH ([…] MH, pH 8.5) per Table 1 footnote b, 16–20 h at 37 °C): 4 µg/mL (≈ 3.03 µM)
MIC P. aeruginosa PAO1 Full ([3]; full MH, pH 7.4, 16–20 h at 37 °C): 8 µg/mL (≈ 6.05 µM)
MIC P. aeruginosa PA14 4.18, […] MH at pH 8.5 ([4]; CSV, […] MH at pH 8.5): 4 ug/mL
MIC P. aeruginosa PA14 4.18, full MH at pH 7.4 ([4]; CSV, full MH at pH 7.4): 16 ug/mL
MIC PA14 4.18 (pmrB) ([4]; MH pH 7.4, 16–20 h at 37 °C): 16 µg/mL (≈ 12.1 µM)
MIC P. aeruginosa PA14 4.18 ([4]; Table S3, […] MH at pH 8.5): 4 µg/mL (≈ 3.03 µM)
MIC P. aeruginosa PA14 4.13, […] MH at pH 8.5 ([5]; CSV, […] MH at pH 8.5): 3 ug/mL
MIC P. aeruginosa PA14 4.13, full MH at pH 7.4 ([5]; CSV, full MH at pH 7.4): 4 ug/mL
MIC PA14 4.13 (phoQ) ([5]; MH pH 7.4, 16–20 h at 37 °C): 4 µg/mL (≈ 3.03 µM)
MIC P. aeruginosa PA14 4.13 ([5]; Table S3, […] MH at pH 8.5): 2 to 4 µg/mL
MIC P. aeruginosa ZEM-1A, […] MH at pH 8.5 ([6]; CSV, […] MH at pH 8.5): 2 ug/mL
MIC P. aeruginosa ZEM-1A, full MH at pH 7.4 ([6]; CSV, full MH at pH 7.4): 2 ug/mL
MIC P. aeruginosa ZEM-1A ([6]; Table S3, […] MH at pH 8.5): 2 µg/mL (≈ 1.51 µM)
MIC E. coli W3110, […] MH at pH 7.4 ([7]; CSV, […] MH at pH 7.4): 2 ug/mL
MIC E. coli W3110, […] MH at pH 8.5 ([7]; CSV, […] MH at pH 8.5): 2 ug/mL
MIC E. coli W3110, full MH at pH 7.4 ([7]; CSV, full MH at pH 7.4): 4 ug/mL
MIC E. coli W3110 […] 7.4 ([7]; Table S2, […] MH, pH 7.4): 2 µg/mL (≈ 1.51 µM)
MIC E. coli W3110 […] 8.5 ([7]; Table S2, […] MH, pH 8.5): 2 µg/mL (≈ 1.51 µM)
MIC E. coli W3110 Full MH 7.4 ([7]; Table S2, full MH, pH 7.4): 4 µg/mL (≈ 3.03 µM)
MIC E. coli W3110 Full MH 8.5 ([7]; Table S2, full MH, pH 8.5): 16 µg/mL (≈ 12.1 µM)
MIC K. pneumoniae OXA-48, […] MH at pH 8.5 ([8]; CSV, […] MH at pH 8.5): 2 ug/mL
MIC K. pneumoniae OXA-48, full MH at pH 7.4 ([8]; CSV, full MH at pH 7.4): 4 ug/mL
MIC K. pneumoniae OXA-48 ([8]; MH pH 7.4, 16–20 h at 37 °C): 4 µg/mL (≈ 3.03 µM)
MIC K. pneumoniae OXA-48 ([8]; Table S3, […] MH at pH 8.5): 2 µg/mL (≈ 1.51 µM)
MIC E. cloacae, […] MH at pH 8.5 ([9]; CSV, […] MH at pH 8.5): 2 ug/mL
MIC E. cloacae, full MH at pH 7.4 ([9]; CSV, full MH at pH 7.4): 4 ug/mL
MIC E. cloacae ([9]; MH pH 7.4, 16–20 h at 37 °C): 4 µg/mL (≈ 3.03 µM)
MIC E. cloacae ([9]; Table S3, […] MH at pH 8.5): 2 µg/mL (≈ 1.51 µM)
MIC S. aureus Newman, […] MH at pH 8.5 ([10]; CSV, […] MH at pH 8.5): 3 ug/mL
MIC S. aureus Newman, full MH at pH 7.4 ([10]; CSV, full MH at pH 7.4): 8 ug/mL
MIC S. aureus Newman ([10]; MH pH 7.4, 16–20 h at 37 °C): 8 µg/mL (≈ 6.05 µM)
MIC S. aureus Newman ([10]; Table S3, […] MH at pH 8.5): 2 to 4 µg/mL
MIC S. maltophilia, […] MH at pH 8.5 ([11]; CSV, […] MH at pH 8.5): 2 ug/mL
MIC S. maltophilia, full MH at pH 7.4 ([11]; CSV, full MH at pH 7.4): 2 ug/mL
MIC S. maltophilia ([11]; MH pH 7.4, 16–20 h at 37 °C): 2 µg/mL (≈ 1.51 µM)
MIC S. maltophilia ([11]; Table S3, […] MH at pH 8.5): 2 µg/mL (≈ 1.51 µM)
MIC S. epidermis, […] MH at pH 8.5 ([12]; CSV, […] MH at pH 8.5): 1 ug/mL
MIC S. epidermis, full MH at pH 7.4 ([12]; CSV, full MH at pH 7.4): 3 ug/mL
MIC S. epidermis ([12]; MH pH 7.4, 16–20 h at 37 °C): 2 to 4 µg/mL
MIC S. epidermis ([12]; Table S3, […] MH at pH 8.5): 1 µg/mL (≈ 0.757 µM)
MIC B. cenocepacia, full MH at pH 7.4 ([13]; CSV, full MH at pH 7.4): >32 ug/mL
MIC B. cenocepacia ([13]; MH pH 7.4, 16–20 h at 37 °C): >32 µg/mL
MIC P. aeruginosa PA14, […] MH at pH 8.5 ([14]; CSV, […] MH at pH 8.5): 3 ug/mL
MIC P. aeruginosa PA14, full MH at pH 7.4 ([14]; CSV, full MH at pH 7.4): 2 ug/mL
MIC P. aeruginosa PA14 ([14]; MH pH 7.4, 16–20 h at 37 °C): 2 µg/mL (≈ 1.51 µM)
MIC P. aeruginosa PA14 ([14]; Table S3, […] MH at pH 8.5, 16-20 hours at 37 °C): 2 to 4 µg/mL
CD %α with 5 mM DPC ([15]; DichroWeb, Contin-LL): 61%
CD %α with 20% TFE ([15]; DichroWeb, Contin-LL): 34%
CD %α with 5 mM DPC ([15]; Table S2): 61%
CD %α with 20% TFE ([15]; Table S2): 34%
MHC [16]: 1000 µg/mL
